Source: patent US10752587B2, “Homobispiperidinyl derivatives as liver X receptor beta agonists, compositions and their use” (Merck Sharp & Dohme Corp., priority 2015, dated 2020)
Where two headings read alike, the source gives them in different places.

Columns and labels:
[1] = biological target: T1, glutathione-S-transferase (GST) tagged LXRbeta LBD (ligand binding domain) (Homo sapiens, UniProt P55055); assay: LanthaScreen TR-FRET Liver X Receptor Coactivator Assay, co-activator recruitment to LXRbeta LBD; assay type: biochemical
T1 construct: purchased Invitrogen pv4658.pps
T1 sequence (P55055 222-460 limits assumed): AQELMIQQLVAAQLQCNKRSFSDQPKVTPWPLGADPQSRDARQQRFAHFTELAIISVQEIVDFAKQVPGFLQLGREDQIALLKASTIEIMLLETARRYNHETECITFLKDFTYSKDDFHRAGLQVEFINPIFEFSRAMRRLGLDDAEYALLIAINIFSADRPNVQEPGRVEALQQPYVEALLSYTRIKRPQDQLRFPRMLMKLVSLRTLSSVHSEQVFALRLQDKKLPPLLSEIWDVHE
Method in brief: (§1)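 GST-tagged LBD added to test compound, then fluorescein-labelled coactivator peptide plus terbium anti-GST antibody; incubated at room temperature, TR-FRET read. Potency given as inflection point and efficacy as Emax relative to reference dual agonist T0901317.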

[2] = biological target: T2, glutathione-S-transferase (GST) tagged LXRalpha LBD (ligand binding domain) (Homo sapiens, UniProt Q13133); assay: LanthaScreen TR-FRET Liver X Receptor Coactivator Assay, co-activator recruitment to LXRalpha LBD; assay type: biochemical
T2 construct: purchased Invitrogen pv4655
T2 sequence (Q13133 209-447 limits assumed): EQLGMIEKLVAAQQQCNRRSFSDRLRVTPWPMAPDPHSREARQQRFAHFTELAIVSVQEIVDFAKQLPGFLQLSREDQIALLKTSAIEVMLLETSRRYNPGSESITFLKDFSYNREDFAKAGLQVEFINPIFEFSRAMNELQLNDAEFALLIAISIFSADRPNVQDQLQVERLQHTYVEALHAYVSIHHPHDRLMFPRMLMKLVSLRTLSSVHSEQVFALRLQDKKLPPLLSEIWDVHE
Method in brief: as §1

[3] = efficacy at max dose, in relation to reference dual agonist T0901317, read-out: LXR beta Activity @ max dose (%)
[4] = potency (Inflection Point, IP), co-activator recruitment to LXRbeta LBD, in relation to T0901317, read-out: LXR beta IP
[5] = efficacy at max dose, in relation to reference dual agonist T0901317, read-out: LXR alpha Activity @ max dose (%)
[6] = potency (Inflection Point, IP), co-activator recruitment to LXRalpha LBD, in relation to T0901317, read-out: LXR alpha IP
[7] = potency (Inflection Point, IP), co-activator recruitment to LXRalpha LBD, in relation to T0901317
[8] = co-activator recruitment to GST-LXRbeta LBD, TR-FRET, read-out: LXR beta IP (Inflection Point, potency)
[9] = efficacy in relation to reference dual agonist T0901317, read-out: LXR beta Activity @ max dose
[10] = co-activator recruitment to GST-LXRalpha LBD, TR-FRET, read-out: LXR alpha IP (Inflection Point, potency)
[11] = efficacy in relation to reference dual agonist T0901317, read-out: LXR alpha Activity @ max dose
[12] = co-activator recruitment to GST-LXRalpha LBD, TR-FRET

Compound	Emax [1, 3] [%]	EC50 [1, 4] [nM]	Emax [2, 5] [%]	EC50 [2, 6] [nM]	LXR alpha IP (nM) [2, 7]	EC50 [1, 8] [nM]	Emax [1, 9] [%]	EC50 [2, 10] [nM]	Emax [2, 11] [%]	LXR alpha IP (Inflection Point, potency) [2, 12]
CN(C)C(=O)c1ccc(N2CCC(CC3CCN(C(=O)[C@@](O)(c4cccc(Br)c4)C(F)(F)F)CC3)CC2)nc1Cl [Example 7-68, 6-[4-({1-[(2S)-2-(3-bromophenyl)-3,3,3-trifluoro-2-hydroxypropanoyl]piperidin-4-yl}methyl)piperidin-1-yl]-2-chloro-N,N-dimethylpyridine-3-carboxamide]	118	64	12	1020	–	–	–	–	–	–
CN(C)C(=O)c1ccc(N2CCC(CC3CCN(C(=O)[C@](N)(c4ccccc4)C(F)(F)F)CC3)CC2)nc1Cl [Example 7-111, 6-[4-({1-[(2R)-2-amino-3,3,3-trifluoro-2-phenylpropanoyl]piperidin-4-yl}methyl)piperidin-1-yl]-2-chloro-N,N-dimethylpyridine-3-carboxamide]	151	49	49	1750	–	–	–	–	–	–
CN(C)C(=O)c1ccc(N2CCC(CC3CCN(C(=O)[C@](O)(c4cccc(Cl)c4)C(F)(F)F)CC3)CC2)cc1 [Example 2-131, 4-[4-({1-[(2R)-2-(3-chloro-phenyl)-3,3,3-trifluoro-2-hydroxy-propanoyl]piperidin-4-yl}methyl)piperidin-1-yl]-N,N-dimethyl-benzamide]	59	53	10	–	NO IP	–	–	–	–	–
CN(C)C(=O)c1ccc(N2CCC(CC3CCN(S(=O)(=O)c4ccc(F)cc4)CC3)CC2)cc1Cl [Example 13-14, 2-chloro-4-[4-({1-[(4-fluorophenyl)sulfonyl]-piperidin-4-yl}methyl)-piperidin-1-yl]-N,N-dimethylbenzamide]	–	–	–	–	–	497	58	2730	24	–
CNC(=O)c1ccc(N2CCC(CC3CCN(C(=O)[C@](O)(c4cccc(OC(F)(F)F)c4)C(F)(F)F)CC3)CC2)cc1Cl [Example 7-125, 2-chloro-N-methyl-4-{4-[(1-{(2R)-3,3,3-trifluoro-2-hydroxy-2-[3-(trifluoromethoxy)phenyl]propanoyl}piperidin-4-yl)methyl]piperidin-1-yl}benzamide]	79	37	24	740	–	–	–	–	–	–
CNC(=O)c1ccc(N2CCC(CC3CCN(C(=O)C(O)(c4cc(F)cc(F)c4)C(F)(F)F)CC3)CC2)cc1Cl (stereo not shown) [Example 7-122, 2-chloro-4-[4-({1-[2-(3,5-difluorophenyl)-3,3,3-trifluoro-2-hydroxypropanoyl]piperidin-4-yl}methyl)piperidin-1-yl]-N-methylbenzamide]	104	9	54	94	–	–	–	–	–	–
COc1cccc(S(=O)(=O)N2CCC(CC3CCN(c4ccc(C(=O)N(C)C)c(Cl)c4)CC3)CC2)c1 [Example 13-11, 2-chloro-4-[4({1-[(3-methoxyphenyl)-sulfonyl]piperidin-4-yl}methyl)piperidin-1-yl]-N,N-dimethyl-benzamide]	–	–	–	–	–	98	64	733	23	–
CN(C)C(=O)c1ccc(N2CCC(CC3CCN(S(=O)(=O)c4cc(F)cc(F)c4)CC3)CC2)cc1Cl [Example 13-6, 2-chloro-4-[4-({1-[(3,5-difluorophenyl)-sulfonyl]piperidin-4-yl}methyl)piperidin-1-yl]-N,N-dimethylbenzamide]	–	–	–	–	–	75	41	–	12	NO IP
C[C@H]1CCCN1C(=O)c1ccc(N2CCC(CC3CCN(C(=O)[C@](O)(c4ccccc4)C(F)(F)F)CC3)CC2)cc1Cl [Example 4-6, (2R)-3-(4-{[1-(3-chloro-4-{[(2S)-2-methyl-pyrrolidin-1-yl]carbonyl}phenyl)piperidin-4-yl]methyl}piperidin-1-yl)-1,1,1-trifluoro-3-trifluoro-3-oxo-2-phenylpropan-2-ol]	78	38	39	331	–	–	–	–	–	–
CNC(=O)c1ccc(N2CCC(CC3CCN(C(=O)[C@](O)(c4cccc(C(F)(F)F)c4)C(F)(F)F)CC3)CC2)nc1Cl [Example 7-150, 2-chloro-N-methyl-6-{4-[(1-{(2R)-3,3,3-trifluoro-2-hydroxy-2-[3-(trifluoromethyl)phenyl]propanoyl}piperidin-4-yl)methyl]piperidin-1-yl}pyridine-3-carboxamide]	84	24	42	256	–	–	–	–	–	–
CN(C)C(=O)c1ccc(N2CCC(OC3CCN(C(=O)N4CC(O)(C(F)(F)F)C4)CC3)CC2)cc1Cl [Example 8-1, 2-chloro-4-(4-((1-(3-hydroxy-3-(trifluoromethyl)azetidine-1-carbonyl)piperidin-4-yl)oxy)piperidin-1-yl)-N,N-dimethylbenzamide]	18	30000	2	–	NO IP	–	–	–	–	–
Cc1cc(N2CCC(CC3CCN(C(=O)[C@](O)(c4cccc(Cl)c4)C(F)(F)F)CC3)CC2)ccc1C(=O)N(C)C [Example 2-159, 4-[4-({1-[(2R)-2-(3-chloro-phenyl)-3,3,3-trifluoro-2-hydroxy-propanoyl]piperidin-4-yl}methyl)piperidin-1-yl]-N,N,2-trimethyl-benzamide]	65	21	22	156	–	–	–	–	–	–
CN(C)C(=O)c1ccc(N2CCC(CC3CCN(S(=O)(=O)c4cccc(OC(F)(F)F)c4)CC3)CC2)cc1Cl [Example 13-16]	–	–	–	–	–	135	35	–	0	NO IP
COc1cccc([C@@](O)(C(=O)N2CCC(C)(CC3CCN(c4ccc(C(=O)N(C)C)c(Cl)c4)CC3)CC2)C(F)(F)F)c1 [Example 2-45, 2-chloro-N,N-dimethyl-4-[4-({4-methyl-1-[(2R)-3,3,3-trifluoro-2-hydroxy-2-(3-methoxyphenyl)propanoyl]piperidin-4-yl}methyl)piperidin-1-yl]benzamide]	18	7	0	–	NO IP	–	–	–	–	–
CCOc1cccc([C@@](O)(C(=O)N2CCC(C)(CC3CCN(c4ccc(C(=O)N(C)C)c(Cl)n4)CC3)CC2)C(F)(F)F)c1 [Example 7-50, 2-chloro-6-[4-({1-[(2R)-2-(3-ethoxyphenyl)-3,3,3-trifluoro-2-hydroxypropanoyl]-4-methylpiperidin-4-yl}methyl)piperidin-1-yl]-N,N-dimethylpyridine-3-carboxamide]	47	10	6	–	NO IP	–	–	–	–	–
CN(C)C(=O)c1ccc(N2CCC(CC3CN(C(=O)C(N)(c4ccccc4)C(F)(F)F)C3)CC2)cc1Cl (stereo not shown) [Example 2-69, 4-(4-{[1-(2-amino-3,3,3-trifluoro-2-phenyl-propanoyl)azetidin-3-yl]methyl}piperidin-1-yl)-2-chloro-N,N-dimethyl-benzamide]	112	1110	16	–	NO IP	–	–	–	–	–
COc1cccc(C(O)(C(=O)N2CCC(OC3CCN(c4ccc(C(=O)N(C)C)c(Cl)c4)CC3)CC2)C(F)(F)F)c1 (stereo not shown) [Example 2-26, 2-chloro-N,N-dimethyl-4-[4-({1-[3,3,3-trifluoro-2-hydroxy-2-(3-methoxyphenyl)propanoyl]piperidin-4-yl}oxy)piperidin-1-yl]benzamide]	68	23	0	–	NO IP	–	–	–	–	–
CN(C)C(=O)c1ccc(N2CCC(CCC3CCN(C(=O)[C@](O)(c4ccccc4)C(F)(F)F)CC3)CC2)cc1Cl [Example 2-162, 2-chloro-N,N-dimethyl-4-[4-(2-{1-[(2R)-3,3,3-trifluoro-2-hydroxy-2-phenyl-propanoyl]piperidin-4-yl}ethyl)piperidin-1-yl]benzamide]	38	502	12	–	NO IP	–	–	–	–	–
Cc1cc(N2CCC(CC3CCN(C(=O)[C@](O)(c4cccc(OC(C)C)c4)C(F)(F)F)CC3)CC2)ccc1C(=O)N(C)C [Example 2-147, N,N,2-trimethyl-4-{4-[(1-{(2R)-3,3,3-trifluoro-2-hydroxy-2-[3-(1-methylethoxy)phenyl]propanoyl}piperidin-4-yl)methyl]piperidin-1-yl}benzamide]	52	19	7	–	NO IP	–	–	–	–	–
